Assay results as given in ChEMBL document CHEMBL1201862, “PubChem BioAssay data set” (2004).
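Method: 48-hour compound exposure of cells in 96-well plates, five concentrations, linear interpolation of endpoints. GI50 marks 50% less growth.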 The source made the active and inactive calls. No stated cut-off is given here; in the data, active = GI50 up to about 1.1 µM and inactive = higher.

Key:
Assay in all cases: NCI anticancer screen, dose series, 48 h
[1] = tested on: HCC 2998
[2] = tested on: SW-620
[3] = tested on: SF-295
[4] = tested on: NCI-H522
[5] = tested on: SN12C
[6] = tested on: OVCAR-8
[7] = tested on: NCI-H460
[8] = tested on: U-251
[9] = tested on: SF-539
[10] = tested on: OVCAR-3
[11] = tested on: EKVX
[12] = tested on: CAKI-1
[13] = tested on: CCRF-CEM
[14] = tested on: UACC-62
[15] = tested on: SK-MEL-5
[16] = tested on: OVCAR-5
[17] = tested on: PC-3
[18] = tested on: HCT-116
[19] = tested on: NCI-H23
[20] = tested on: RPMI-8226
[21] = tested on: RXF 393
[22] = tested on: NCI/ADR-RES
[23] = tested on: DU-145
[24] = tested on: A549
[25] = tested on: M14
[26] = tested on: SK-MEL-2
[27] = tested on: ACHN
[28] = tested on: LOX IMVI
[29] = tested on: OVCAR-4
[30] = tested on: HT-29
[31] = tested on: K562
[32] = tested on: KM12
[33] = tested on: TK-10
[34] = tested on: SK-MEL-28
[35] = tested on: SR
[36] = tested on: 786-0
[37] = tested on: MOLT-4
[38] = tested on: BT-549
[39] = tested on: UO-31
[40] = tested on: MDA-MB-435
[41] = tested on: HCT-15
[42] = tested on: Hs-578T
[43] = tested on: UACC-257
[44] = tested on: SF-268
[45] = tested on: Malme-3M
[46] = tested on: HOP-62
[47] = tested on: NCI-H226
[48] = tested on: IGROV-1
[49] = tested on: HOP-92
[50] = tested on: HL-60
[51] = tested on: A498
[52] = tested on: MCF7
[53] = tested on: MDA-MB-231
[54] = tested on: SNB-19
[55] = tested on: SK-OV-3
[56] = tested on: SNB-75
[57] = tested on: COLO 205
[58] = tested on: T47D

NCCCn1c2ccccc2c2c3c(c4c(c21)CCC(O)CC4)C(=O)NC3=O (stereo not drawn)
GI50 [1]: 845 nM (active)
GI50 [2]: 1040 nM (active)
GI50 [3]: 3220 nM (inactive)
GI50 [4]: 2440 nM (inactive)
GI50 [5]: 2420 nM (inactive)
GI50 [6]: 5010 nM (inactive)
GI50 [7]: 2060 nM (inactive)
GI50 [8]: 1750 nM (inactive)
GI50 [9]: 6610 nM (inactive)
GI50 [10]: 2550 nM (inactive)
GI50 [11]: 9180 nM (inactive)
GI50 [12]: 3660 nM (inactive)
GI50 [13]: 962 nM (active)
GI50 [14]: 4120 nM (inactive)
GI50 [15]: 3310 nM (inactive)
GI50 [16]: 2240 nM (inactive)
GI50 [17]: 3480 nM (inactive)
GI50 [18]: 1880 nM (inactive)
GI50 [19]: 2450 nM (inactive)
GI50 [20]: 1980 nM (inactive)
GI50 [21]: 2150 nM (inactive)
GI50 [22]: 13000 nM (inactive)
GI50 [23]: 3700 nM (inactive)
GI50 [24]: 4860 nM (inactive)
GI50 [25]: 4480 nM (inactive)
GI50 [26]: 10400 nM (inactive)
GI50 [27]: 1790 nM (inactive)
GI50 [28]: 1010 nM (active)
GI50 [29]: 1850 nM (inactive)
GI50 [30]: 729 nM (active)
GI50 [31]: 690 nM (active)
GI50 [32]: 458 nM (active)
GI50 [33]: 3570 nM (inactive)
GI50 [34]: 920 nM (active)
GI50 [35]: 1690 nM (inactive)
GI50 [36]: 2920 nM (inactive)
GI50 [37]: 1530 nM (inactive)
GI50 [38]: 4810 nM (inactive)
GI50 [39]: 6270 nM (inactive)
GI50 [40]: 1530 nM (inactive)
GI50 [41]: 11000 nM
GI50 [42]: 3130 nM (inactive)
GI50 [43]: 14800 nM (inactive)
GI50 [44]: 1580 nM (inactive)
GI50 [45]: 2140 nM (inactive)
GI50 [46]: 2500 nM (inactive)
GI50 [47]: 2740 nM (inactive)
GI50 [48]: 9790 nM (inactive)
GI50 [49]: 2710 nM (inactive)
GI50 [50]: 9120 nM (inactive)
GI50 [51]: 9380 nM (inactive)
GI50 [52]: 796 nM (active)
GI50 [53]: 1850 nM (inactive)

c1ccc(-c2cnc3nc4ccccc4nc3n2)cc1
GI50 [1]: 11700 nM (inactive)
GI50 [2]: 2810 nM (inactive)
GI50 [3]: 6110 nM (inactive)
GI50 [4]: 3500 nM (inactive)
GI50 [5]: 9080 nM (inactive)
GI50 [6]: 1980 nM (inactive)
GI50 [7]: 2960 nM (inactive)
GI50 [8]: 4940 nM (inactive)
GI50 [9]: 3250 nM (inactive)
GI50 [10]: 1160 nM (inactive)
GI50 [54]: 13700 nM (inactive)
GI50 [11]: 2880 nM (inactive)
GI50 [12]: 942 nM (active)
GI50 [13]: 301 nM (active)
GI50 [14]: 2850 nM (inactive)
GI50 [15]: 3050 nM (inactive)
GI50 [16]: 13600 nM (inactive)
GI50 [55]: 2870 nM (inactive)
GI50 [18]: 2860 nM (inactive)
GI50 [19]: 3820 nM (inactive)
GI50 [20]: 1320 nM (inactive)
GI50 [56]: 2660 nM (inactive)
GI50 [22]: 3810 nM (inactive)
GI50 [23]: 3830 nM (inactive)
GI50 [24]: 10000 nM (inactive)
GI50 [25]: 6110 nM (inactive)
GI50 [26]: 2880 nM (inactive)
GI50 [27]: 1220 nM (inactive)
GI50 [28]: 3250 nM (inactive)
GI50 [29]: 1720 nM (inactive)
GI50 [30]: 7050 nM (inactive)
GI50 [31]: 2510 nM (inactive)
GI50 [32]: 1220 nM (inactive)
GI50 [33]: 4200 nM (inactive)
GI50 [34]: 14700 nM (inactive)
GI50 [35]: 826 nM (active)
GI50 [57]: 2150 nM (inactive)
GI50 [36]: 3900 nM (inactive)
GI50 [37]: 1310 nM (inactive)
GI50 [38]: 3430 nM (inactive)
GI50 [39]: 4580 nM (inactive)
GI50 [58]: 3850 nM (inactive)
GI50 [40]: 1580 nM (inactive)
GI50 [41]: 2500 nM
GI50 [42]: 3780 nM (inactive)
GI50 [43]: 2250 nM (inactive)
GI50 [44]: 4290 nM (inactive)
GI50 [45]: 2450 nM (inactive)
GI50 [46]: 13900 nM (inactive)
GI50 [47]: 3230 nM (inactive)
GI50 [48]: 3310 nM (inactive)
GI50 [50]: 1820 nM (inactive)
GI50 [51]: 3330 nM (inactive)
GI50 [52]: 1820 nM (inactive)
GI50 [53]: 2690 nM (inactive)
